Assay results taken from PMC9653453, “Development of truncated elastin-like peptide analogues with improved temperature-response and self-assembling properties” (Scientific Reports, 2022).
“Also recorded” adds a separate entry of the source. Ends that are not written are not given here.

What was measured:
[1] = Turbidity measurement (phase transition temperature Tt, coacervation) in phosphate buffer pH 7.4; assay type: physicochemical; conditions: turbidity at 400 nm, heating 0.5 ℃/min from 5 ℃, mean ± SE, at least three measurements
Experimental: Turbidity measurements were performed in accordance with previous reports. The temperature-dependent self-assembling properties of the ELP analogues were evaluated using a JASCO V-660 spectral photometer (JASCO Co., Tokyo, Japan). Peptide sample solutions of different concentrations (2.0, 5.0, 10, 20, 30, or 50 mg/mL) were prepared by dissolving each peptide (except for AADAAC-(FPGV)n) in phosphate buffer (27.4 mM Na2HPO4, 17.8 mM NaH2PO4, pH 7.4). AADAAC-(FPGV)4 was dissolved in Tris–HCl buffer solution (50.0 mM Tris, at pH 8.4 or 50.0 mM Tris, 154 mM NaCl, at pH 8.4) to prepare sample solutions of a concentration of 0.5 or 10 mg/mL in the absence or presence of the equimolar amount of CdCl2. Turbidity was measured at 400 nm with increasing or decreasing temperature at a rate of 0.5 ℃/min from 5 ℃. The concentration of each sample solution was measured at least three times. The self-assembling property was described by the phase transition temperature (Tt), which is the temperature at which the turbidity of the solution reaches half the maximum value.

[2] = RP-UPLC retention time, used as measure of peptide hydrophobicity; assay type: physicochemical; conditions: RP-UPLC-MS; chromatographic
Experimental: Peptide synthesis was carried out using the conventional solid-phase peptide synthesis procedure (see supplementary information). The synthesized peptides were purified using RP-HPLC. The purity and molecular weight of each peptide were confirmed using RP-UPLC-MS (Table S1 and Fig. S1). […]
Retention times of each peptide were determined by RP-UPLC-MS.

[3] = Dynamic light scattering (DLS) size distribution of coacervates; assay type: physicochemical; conditions: 10 to 50 ℃ in 10 ℃ steps; phosphate buffer pH 7.4; peptide concentrations as in Fig. 3 (2.0-50 mg/mL)
Experimental: The distribution of the particle size in the truncated ELP analogue solution was analyzed via DLS using Zetasizernano ZS (Malvern Instruments Ltd., Worcestershire, U.K.) in a measurement cell ZEN0112 (Malvern Instruments Ltd.)[33]. Peptide samples of different concentrations (2.0, 10, 20, 30, or 50 mg/mL) were prepared by dissolving each peptide in phosphate buffer (27.4 mM Na2HPO4, 17.8 mM NaH2PO4, pH 7.4) and filtered using the Millex-LG filter (pore size 0.2 µm, Merck Millipore) before measurement. DLS analysis was performed by increasing the temperature at 10 ℃ intervals from 10 to 50 ℃. Measurement duration was selected automatically. Parameter dataset “protein” (dataset: refractive index, 1.450; absorption, 0.001) was used as the material parameter, and parameter dataset “water” (dataset: refractive index, 1.330; viscosity, 0.8872) was chosen as the dispersant parameter. Attenuation was selected automatically. Each concentration was measured at least three times.

[4] = Optical microscopy of peptide aggregates with image analysis of particle size; assay type: physicochemical; conditions: peptide 10 mg/mL, phosphate buffer pH 7.4
Experimental: The morphology of the coacervates of (FPGVG)4, (FPGV)4, and (FPG)4 was observed using optical microscopy. Light field observation was performed using a Leica DM IL LED microscope (Leica Microsystems CMS, Wetzlar, Germany) equipped with HI PLAN 40 × (Leica Microsystems CMS) and HC PLAN 10 × (Leica Microsystems CMS) objectives. Each peptide was dissolved in phosphate buffer (27.4 mM Na2HPO4, 17.8 mM NaH2PO4, at pH 7.4) to a concentration of 10 mg/mL and applied on a glass slide. Sample imaging was performed below and above the Tt of each peptide using a Thermo Plate TP-CHSQM (Tokai Hit Co., Ltd., Shizuoka, Japan). Sample images above Tt were taken 3 min after the sample reached the target temperature. The details of the image analysis is shown in the Supplementary Information file.
Size distribution of coacervates of ELP analogues formed above the Tt was analyzed using optical microscopy images of each peptide. Image analysis was performed using Image J/Fiji (NIH, USA), an open-source image analysis software.^2 Spatial calibration was carried out using […] in original images. The images of peptide coacervates were converted to a binary image via the menu command Image > Type > 8-bit. Using "analyze particle" command, the Feret diameters of the particles within the image were measured.

[5] = Time-lapse thioflavin T (ThT) fluorescence assay; assay type: physicochemical; conditions: peptide 10 mg/mL; phosphate buffer pH 7.4; 15, 30 and 45 ℃; excitation 446 nm, emission 483 nm
Experimental: Thiofalvin T (ThT) fluorescence measurements were performed for (FPGVG)5, (FPGVG)4, (FPGV)5, and (FPGV)4. Each peptide was dissolved in phosphate buffer (27.4 mM Na2HPO4, 17.8 mM NaH2PO4, pH 7.4) to different concentrations (1.0 mg/mL for (FPGV)5, 5.0 mg/mL for (FPGVG)5 and (FPGV)4, and 10 mg/mL for (FPGVG)4, respectively). Then, 1 mM of ThT aqueous solution was added to each sample at a final ThT concentration of 25 μM) followed by incubation for 1 h at 4 °C. The fluorescence intensity was measured using a FP-8500 spectrofluorometer (JASCO Co.). The excitation was set at 446 nm and the emission was recorded at 483 nm. The fluorescence intensities of samples were monitored at 15 °C for 30 min. Then, the sample temperature was raised to 30 °C and the measurements were performed for another 30 min. The same measurement was also carried out at 45 °C for (FPGV)4.

[6] = Turbidity measurement of AADAAC-(FPGV)4 in Tris-HCl buffer pH 8.4 with or without CdCl2 / NaCl; assay type: physicochemical; conditions: for Tt: turbidity at 400 nm, mean ± SE, at least three measurements
Experimental: This hexapeptide sequence strongly and selectively binds to cadmium above pH 6.0, whereas this peptide releases metal ions below pH 4.0[51]. […] To assess the self-assembly property, turbidity measurements of AADAAC-(FPGV)4 were carried out under the same conditions as described above (Table 2 and Fig. 8). First, AADAAC-(FPGV)4 was dissolved to a concentration of 10 mg/mL in Tris–HCl buffer (pH 8.4) instead of phosphate buffer (pH 7.4), considering its use as a metal scavenging agent under basic conditions. Under these conditions, the Tt of AADAAC-(FPGV)4 was 41.6 ± 1.0 ℃ at a peptide concentration of 10 mg/mL. Since Tt tended to increase with the proportion of hydrophilic residues in the peptide, the self-assembling ability of AADAAC-(FPGV)4 was weakened compared with that of (FPGV)4, owing to the presence of hydrophilic Asp and Cys residues in the AADAAC sequence conjugated to (FPGV)4[34]. On the other hand, in the presence of Cd^2+, AADAAC-(FPGV)4 was insoluble in the solution. Therefore, the binding of the AADAAC sequence to Cd^2+ ions was thought to contribute to the enhanced self-assembly of AADAAC-(FPGV)4 in the presence of the metal ions. […] This characteristic of AADAAC-(FPGV)4 was similar to that of AADAAC-(FPGVG)4, which we previously reported. Subsequently, to verify whether this peptide can be used as a metal recovery agent at a lower peptide concentration, turbidity measurement using a low-concentration peptide solution (0.5 mg/mL, 0.236 mM) was performed. […] Thus, turbidity was measured in Tris–HCl buffer (50.0 mM Tris, 0.236 mM CdCl2, pH 8.4) containing 0.9% NaCl (154 mM, equivalent to saline), because it has been reported that salts such as NaCl increase the self-association and decrease the Tt of ELPs[52]. […] Owing to this drastic change in water solubility in the presence and absence of cadmium ions, AADAAC-(FPGV)4 was considered to be useful as a Cd^2+-selective metal-scavenging agent.
Turbidity measurements were performed in accordance with previous reports. The temperature-dependent self-assembling properties of the ELP analogues were evaluated using a JASCO V-660 spectral photometer (JASCO Co., Tokyo, Japan). Peptide sample solutions of different concentrations (2.0, 5.0, 10, 20, 30, or 50 mg/mL) were prepared by dissolving each peptide (except for AADAAC-(FPGV)n) in phosphate buffer (27.4 mM Na2HPO4, 17.8 mM NaH2PO4, pH 7.4). […] Turbidity was measured at 400 nm with increasing or decreasing temperature at a rate of 0.5 ℃/min from 5 ℃. The concentration of each sample solution was measured at least three times. […]

[7] = Colorimetric (xylenol orange) determination of Cd^2+ removal by peptide coacervation; conditions: peptide 1.0 mg/mL; for Concentration of metal ion in the supernatant: Cd^2+ (0.236 mM CdCl2), Tris-HCl (50.0 mM Tris, 599 mM NaCl, pH 8.0), at least three measurements; for Concentration of metal ion in the supernatant / Removal efficiency: mean ± SE; for Removal efficiency: Cd^2+, versus control without peptide
Experimental: (§1) Colorimetric analyses of cadmium ions (Cd^2+) were carried out to evaluate the number of metal ions absorbed into the coacervation phase of the peptides by using a spectral photometer (JASCO V-660)[45]. […] The peptide solutions were incubated at 4 ℃ for 3, 6, or 12 h and then at 60 ℃ for 1.5 h to separate into the lower coacervation phase from the upper equilibrium solution phase. After incubation, the peptide solution was immediately centrifuged at room temperature for 2 min (6,200 rpm) to remove aggregates. An aliquot of 333 µL of supernatant of the equilibrium solution phase was added to 600 µL of acetate buffer solution (pH5.4) including 67 μM of XO and incubated for 10 min. Subsequently, the concentrations of Cd^2+ or Zn^2+ were determined by measuring the absorbance at 575 nm or 550 nm, respectively, which corresponds to the absorbance of the metal-XO complex. The amount of metal ions absorbed in the peptide solution was determined by the calibration line, which was prepared in the same manner by using a series of standard CdCl2 or ZnCl2 aqueous solutions of known concentrations. The homogeneity of variances between the concentration of each metal ion in the supernatant and the control solution was confirmed using the F test. The statistical significance of the difference between the concentration of each metal ion in the supernatant and the control solution was determined using the Student's t-test. Results were considered statistically significant at P values of ≤ 0.01.

[8] = Colorimetric (xylenol orange) determination of Zn^2+ removal by peptide coacervation; conditions: peptide 1.0 mg/mL, mean ± SE
Experimental: as §1, with “The homogeneity of variances between the concentration of each metal ion in the supernatant and the control solution was confirmed using the F test.” left out, “Results were considered statistically significant at P values of ≤ 0.01.” left out

| Tt, phase transition temperature ([1]; peptide 5.0 mg/mL, phosphate buffer pH 7.4, half-maximal turbidity) [°C] | Tt, phase transition temperature ([1]; peptide 10 mg/mL, phosphate buffer (27.4 mM Na2HPO4, 17.8 mM NaH2PO4, pH 7.4), Tt = temperature at half-maximal turbidity) [°C] | Morphology of aggregates (optical microscopy, in words) [4] | Particle size of coacervates (optical microscopy image analysis, Feret diameter) ([4]; above Tt ((FPGVG)4 40 °C, (FPGV)4 25 °C), ImageJ/Fiji) | ThT fluorescent intensity versus temperature (in words) [5] | Substance | UPLC retention time (measure of hydrophobicity) [2] [min] | Temperature-dependent particle size by DLS (in words) [3] | Tt ([6]; peptide 0.5 mg/mL (0.236 mM), Tris-HCl buffer (50.0 mM Tris, pH 8.4) with 154 mM NaCl and 0.236 mM CdCl2 (equimolar)) [°C] | Coacervation (in words) ([6]; peptide 0.5 mg/mL (0.236 mM), Tris-HCl buffer (50.0 mM Tris, pH 8.4) with 154 mM NaCl, absence of Cd^2+) | Tt / solubility in the presence of Cd^2+ ([6]; peptide 10 mg/mL (4.71 mM), Tris-HCl buffer (50.0 mM Tris, pH 8.4) with 4.71 mM CdCl2) | Tt ([6]; peptide 10 mg/mL (4.71 mM), Tris-HCl buffer (50.0 mM Tris, pH 8.4), no additive, 0.5 ℃/min) [°C] | Concentration of metal ion in the supernatant ([7]; incubation 3 h at 4 ℃ then 60 ℃ 1.5 h, xylenol orange absorbance 575 nm) [ppm] | Concentration of metal ion in the supernatant ([7]; incubation 6 h at 4 ℃ then 60 ℃ 1.5 h) [ppm] | Concentration of metal ion in the supernatant ([7]; incubation 12 h at 4 ℃ then 60 ℃ 1.5 h) [ppm] | Removal efficiency ([7]; incubation 6 h) [%] | Removal efficiency ([7]; incubation 12 h) [%] | Cd^2+ concentration remaining in the supernatant ([7]; incubation for 12 h at 4 ℃ before heating) [%] | Concentration of metal ion in the supernatant ([8]; Zn^2+ (0.236 mM ZnCl2), incubation 12 h at 4 ℃ then 60 ℃ 1.5 h, Tris-HCl (50.0 mM Tris, 599 mM NaCl, pH 8.0), xylenol orange absorbance 550 nm, at least three measurements) [ppm] | Removal efficiency ([8]; Zn^2+, incubation 12 h, versus control without peptide) [%] |
| --- | --- | --- | --- | --- | --- | --- | --- | --- | --- | --- | --- | --- | --- | --- | --- | --- | --- | --- | --- |
| 47.5 ± 0.3 | 33.8 ± 0.3 | spherical aggregates | about 1 µm | significantly elevated at 45 °C | FPGVGFPGVGFPGVGFPGVG-NH2 [(FPGVG)4, reference compound] | 2.251 | formed sub-micron particles below Tt, which grew into micrometer-sized particles above Tt | – | – | – | – | – | – | – | – | – | – | – | – |
| – | – | – | – | – | AADAACFPGVFPGVFPGVFPGV-NH2 [AADAAC-(FPGV)4, H-AADAAC-(FPGV)4-NH2] | 2.496 | – | 13.8 ± 0.1 | did not show coacervation | insoluble; also recorded: Not dissolved | 41.6 ± 1.0 | 6.8 ± 0.11 | 2.5 ± 0.49 | 1.3 ± 0.046 | 90.9 ± 0.018 | 95.1 ± 0.002 | 4.9 | 4.4 ± 0.008 | 75.3 ± 0.001 |
